The test deals with CsgA gene expression (csgBAC promoter-GFP reporter) in E. coli UTI89. Kind of test: In vitro live cell fluorescent reporter assay of CsgA transcription (Reporter Assay). Type of test: cell-based. As to conditions: Escherichia coli. The procedure, abridged:
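Chromosomal single-copy csgBAC promoter–GFP reporter in E. coli UTI89, started at OD600 0.003 in YESCA broth with compound (0.14–100 μM, 1% DMSO), 20 h at 27 °C. GFP (ex 485/em 525 nm) background-subtracted and normalized to vehicle; IC50 and X[50] from curve fits. OD600 tracked growth effects.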
(In general: In a reporter assay the amount or activity of a reporter protein is the signal.)

Setting [1] is: read-out: Reporter Assay Abs IC50 (activity range), median Abs IC50 in the CsgA reporter assay, class symbol.
The mark [2] stands for this setting: read-out: Reporter Assay Abs IC50 (μM), median Abs IC50 in the CsgA reporter assay, N/A = maximum expression reduction is <50% of control.

The structures appear in SMILES notation. Where two headings read alike, the source gives them in different places.

Take `CC(C)N1CC(C(=O)O)n2c(c(-c3cccc(C(F)(F)F)c3)c(Cc3cccc4ccccc34)c(NC3CCCC3)c2=O)S1(=O)=O` (stereo not drawn) [Compound 123, 7-(cyclopentylamino)-2-isopropyl-8-(naphthalen-1-ylmethyl)-6-oxo-9-(3-(trifluoromethyl)phenyl)-3,4-dihydro-2H,6H-pyrido[1,2-e][1,2,5]thiadiazine-4-carboxylic acid 1,1-dioxide]: the IC50 is 1.3 to 4.5 µM under setting [1] and 3.3 µM under setting [2].

`CCCN1CC(C(=O)O)n2c(c(-c3cccc(C(F)(F)F)c3)c(Cc3cccc4ccccc34)c(NC3CCCC3)c2=O)S1(=O)=O` (stereo not drawn) [Compound 126, 7-(cyclopentylamino)-8-(naphthalen-1-ylmethyl)-6-oxo-2-propyl-9-(3-(trifluoromethyl)phenyl)-3,4-dihydro-2H,6H-pyrido[1,2-e][1,2,5]thiadiazine-4-carboxylic acid 1,1-dioxide]: the IC50 reads like this: under setting [1], 1.3 to 4.5 µM; under setting [2], 1.9 µM.

Turning to `CCCN1CC(C(=O)O)n2c(c(-c3cccc(C(F)(F)F)c3)c(Cc3cccc4ccccc34)c(NC3CCOCC3)c2=O)S1(=O)=O` (stereo not drawn) [Compound 127, 8-(naphthalen-1-ylmethyl)-6-oxo-2-propyl-7-((tetrahydro-2H-pyran-4-yl)amino)-9-(3-(trifluoromethyl)phenyl)-3,4-dihydro-2H,6H-pyrido[1,2-e][1,2,5] thiadiazine-4-carboxylic acid 1,1-dioxide], the IC50 under setting [1] was in the range of 4.6 to 10 µM and the IC50 under setting [2] worked out at 4.8 µM.

By IC50 is commonly meant the concentration needed to halve the response being measured.

The record behind these values is patent publication US20230131899A1, “INHIBITORS OF MICROBIALLY INDUCED AMYLOID” (Axial Therapeutics, Inc., priority 2020, published 2023).
